Source: patent publication US6218378A, “Anti-tumor agents comprising pyridyl-substituted metal-diphosphine complex” (priority 1994, dated 2001)
Like-named read-outs stand apart in the source and are kept apart here.

What was measured:
41M-cisR [1] = assay: cytotoxicity assay, sulforhodamine B; format: cell-based, human; settings: Homo sapiens, 41McisR, 96 hrs, mean ± SD or individual values when n<3
Experimental: (§1) In Table 2, reference is made to cell lines 41M, 41M-cisR, SKOV-3, CH1 and CH1-cisR.
(§2) J. Cancer 69 1-7. The characteristics of the cell line pairs CH1/CH1 cisR, 41M/41McisR and 41M/SKOV3 are described in Table 3.
(§3) The cytotoxicity assay used sulforhodamine B which stains the basic amino acids. Cells (5000 or 2500 for SKOV-3) were seeded into 96 well microtitre plates (Linbro, Flow Laboratories Inc., USA) in 0.1 ml of medium. After an overnight incubation, the metal phosphine compounds were dissolved in 0.9% NaCl or ethanol and diluted with medium, were added at concentrations ranging from 0.005 to 50 μM to quadruplicate wells. After 96 hrs incubation, the medium was removed and cells were fixed in 0.2 ml of cold 10% (w/v) trichloroacetic acid (May & Baker Ltd., Dagenham, England) for 30 mins at 4° C. The plates were washed five times with tap water. Then 0.1 ml of 0.4% (w/v) sulforhodamine B (Sigma Chemical Co., St. Louis, USA) dissolved in 1% acetic acid (Ajax Chemicals, Australia) was added to the wells and left to stand at room temperature for 15 mins. The plates were then washed five times with 1% acetic acid and left to dry overnight. The next morning, 0.1 ml of 10 mM Tris buffer (Sigma Chemical Co., St. Louis, USA) was then added to each plate to solubilise the dye. Absorbance was read at a wavelength of 570 nm using a 96 well plate reader Dynatech MR 5000 plate reader. Absorbance of treatment cells was expressed as a percentage of positive (drug-free) controls. The results were plotted as percentage growth versus drug concentration.

41M [2] = assay: cytotoxicity assay, sulforhodamine B; format: cell-based, human; settings: Homo sapiens, 96 hrs, mean ± SD or individual values when n<3
Experimental: as §1, §2, §3

CH1-cisR [3] = assay: cytotoxicity assay, sulforhodamine B; format: cell-based, human; settings: Homo sapiens, CH1cisR, 96 hrs, mean ± SD or individual values when n<3
Experimental: as §1, §2, §3

CH1 [4] = assay: cytotoxicity assay, sulforhodamine B; format: cell-based, human; settings: Homo sapiens, 96 hrs, mean ± SD or individual values when n<3
Experimental: as §1, §2, §3

SKOV-3 [5] = assay: cytotoxicity assay, sulforhodamine B; format: cell-based, human; settings: Homo sapiens, SK-OV-3, 96 hrs, mean ± SD or individual values when n<3
Experimental: as §1, §2, §3

[6] = tested on: 41M, 41M-cisR, SKOV-3, CH1, CH1-cisR; assay: growth inhibition of cisplatin-sensitive and -resistant ovarian cancer cell lines (Table 2, FIG. 5); format: cell-based, human; settings: 41M/41M-cisR and CH1/CH1-cisR pairs
Source text: (§4) The sensitive CH1 cell line was established from a patient with drug-sensitive disease and its resistant variant (CH1-cisR) was generated by prolonged in vitro exposure to cisplatin during which it acquired more efficient DNA repair as described in Kelland et al., 1992, Cancer Research 52 3857-3864. The sensitive 41M cell line was also established from a patient with a sensitive tumor and its resistant variant (41M-cisR) was generated in the same way but acquired decreased uptake across the cell membrane (Kelland et al., 1992, supra). The intrinsically-resistant SKOV-3 ovarian carcinoma cell line has high glutathione levels as described in Mistry et al., 1991, Brit. J. Cancer 64 215-220 and reduced levels of bi-functional cisplatin-DNA lesions as described in McKeage et al., 1994, Brit. J. Cancer 69 1-7. The characteristics of the cell line pairs CH1/CH1 cisR, 41M/41McisR and 41M/SKOV3 are described in Table 3.
as §3, with “concentration. The drug concentration resulting in a 50% growth inhibition was termed the IC50. The passage numbers used for the cytotoxicity assay from each cell line were, CH1 passages 50-58, CH1 cis-R passages 77-83, 41M passages 50-63, 41M cisR 81-92 and SKOV-3 passages 106-128.” for “concentration.”

[7] = from Chen in Cancer Cells 1; cited from earlier work
HeLa = settings: ID37 data from Ying Dong et al. submitted for publication; cited from earlier work
HeLa-S1a = settings: ID37 data from Ying Dong et al. submitted for publication; cited from earlier work
JAM = settings: ID37 data from Ying Dong et al. submitted for publication; cited from earlier work
CI-80-13S = settings: ID37 data from Ying Dong et al. submitted for publication; cited from earlier work
[8] = tested on: mitochondria of carcinoma derived cells; settings: carcinoma derived versus untransformed cells; cited from earlier work
human tumour cell lines = assay: selectivity of cytotoxicity over all cell lines evaluated (Tables 1 and 2); format: cell-based
Source text: The origins of the human melanoma cell line MM96 has been described in Whitehead et al., 1973, Pigment Cell 1 383-389. The cell line JAM is described in Ward et al., 1987, Cancer Res. 47 2662-2667. The origin of the ovarian tumour line CI-80-13S has been described in Bertoncello et al., 1985, Aust. J. Exp. Biol. Med. Sci. 63 241-243. The origin of the cervical carcinoma cell line HeLa has been described in Maynard et al., 1986, Cancer Res. 46 5009-5093. The subclone HeLa-S1a was derived by stably transfecting HeLa with PAI-2 cDNA described in Schleuning et al., 1987, Mol. Cell. Biol. 7 4564-4567 in the sense orientation under the control of the cyto-megalovirus (CMV) promoter. The stably infected subclone was isolated following G418 selection and expression of the PAI-2 transgene characterised by immunoblot analysis and quantitated by ELISA. All of these cell lines have been used before for carrying out cell survival assays referred to in FIGS. 1-4. Cells were cultured at 37° in 5% CO2 /air in Roswell Park Memorial Institute medium 1640 containing 5% foetal calf serum, 100 μg/ml streptomycin, 100 IU/ml penicillin, 1 mM pyruvate, 50 μM nicotinamide and 3 mM HEPES.
Cells were seeded in microtitre plates (lowest number for fastest growing cells: 1000 HeLa, 2000 MM96, […] CI-80-13S cells per 6 mm well in 100 μl), normally but not necessarily allowed to attach overnight, then 5 dilutions of the drug were added to duplicate wells. After an overnight incubation to equilibrate the pH, the lids were quickly taped around the edge to prevent evaporation. The plates were incubated for 5-7 days, until the controls were nearly confluent. Cell growth/morphology was scored at each dose visually (inverted microscope). The medium was then replaced by 50 μl fresh medium containing 2 u/Ci/ml [methyl-3H]-thymidine (5 Ci/mmol; Radiochemical Centre, Amersham, Bucks., U.K.) and incubated for 2-4 hr. The cells were washed with PBS (0.1 M NaCl, 50 mM phosphate, pH 7.2), detached with 100 μl of PBS containing 0.2 mg/ml trypsin and 10 mM EDTA, and washed onto a glass fibre GF/a filter mat with water using a cell harvester. Later, wells were checked under the microscope to ensure complete detachment and washout. Radioactivity was determined in an LKB Beta Plate counter and the results plotted as log % control cpm versus dose. The ID50 (dose required to give 50% survival) was interpolated from this survival curve.
as §4
The cytotoxicity assay used sulforhodamine B which stains the basic amino acids. Cells (5000 or 2500 for SKOV-3) were seeded into 96 well microtitre plates (Linbro, Flow Laboratories Inc., USA) in 0.1 ml of medium. After an overnight incubation, the metal phosphine compounds were dissolved in 0.9% NaCl or ethanol and diluted with medium, were added at concentrations ranging from 0.005 to 50 μM to quadruplicate wells. After 96 hrs incubation, the medium was removed and cells were fixed in 0.2 ml of cold 10% (w/v) trichloroacetic acid (May & Baker Ltd., Dagenham, England) for 30 mins at 4° C. The plates were washed five times with tap water. […]

tumour models in mice = settings: literature; mice; cited from earlier work
Beagle dogs = settings: cited from earlier work
DNA in tumour cells = settings: cited from earlier work
[9] = attributed to lipophilic cationic properties; cited from earlier work
[10] = tested on: mitochondrial membrane / oxidative phosphorylation; settings: cited from earlier work
41M [11] = settings: data from Kelland et al., 1992; cited from earlier work
41M-cisR [12] = settings: data from Kelland et al., 1992; cited from earlier work
SKOV-3 [13] = settings: data from McKeage et al., 1994; cited from earlier work
CH1 [14] = settings: data from Kelland et al., 1992; cited from earlier work
CH1-cisR [15] = settings: data from Kelland et al., 1992; cited from earlier work
Rhodamine 123 uptake = settings: cells treated with cisplatin; cited from earlier work

CCN(CC)c1ccc2c(-c3ccccc3C(=O)O)c3ccc(=[N+](CC)CC)cc-3oc2c1 [Rhodamine, reference compound]
IC50 (41M-cisR [1]): 1 µM | IC50 (41M [2]): 3 µM | IC50 (CH1-cisR [3]): 0.5 µM | IC50 (CH1 [4]): 0.9 µM | IC50 (SKOV-3 [5]): 1 µM | sensitivity of cisplatin resistant cells versus non-resistant cells [6]: the cisplatin resistant cells are more sensitive to Rhodamine than the nonresistant cells | partition co-efficient [7]: 0.34 | ID37 (HeLa): 2.73 ± 0.28 µM | ID37 (HeLa-S1a): 0.58 ± 0.08 µM | ID37 (JAM): 0.90 ± 0.03 µM | ID37 (CI-80-13S): 0.105 ± 0.026 µM | accumulation in mitochondria [8]: accumulate in the mitochondria of most carcinoma derived cells more rapidly than in most untransformed cells

[Au+].[Cl-].c1ccc(P(CCP(c2ccccc2)c2ccccc2)c2ccccc2)cc1.c1ccc(P(CCP(c2ccccc2)c2ccccc2)c2ccccc2)cc1 [[Au(dppe)2]Cl]
degree of selectivity (human tumour cell lines; Tables 1 and 2): the least selectivity | number of cell lines against which cytotoxic (human tumour cell lines; nine cell-lines tested / all evaluated): cytotoxic to all the cell lines evaluated | ID37 (HeLa): 0.95 ± 0.13 µM | ID37 (HeLa-S1a): 0.073 ± 0.005 µM | ID37 (JAM): 0.73 ± 0.15 µM | ID37 (CI-80-13S): 0.20 ± 0.03 µM | antitumour activity (tumour models in mice): good antitumour activity | toxicities in preclinical trials (Beagle dogs): severe cardiac, hepatic and vascular toxicities | DNA damage (DNA in tumour cells): produced DNA-single strand breaks and DNA-protein crosslinks in tumour cells | hepatotoxicity [9]: severe and unacceptable hepatotoxicity | effect on mitochondrial function [10]: uncouples oxidative phosphorylation via dissipation of the membrane potential

N.N.[Cl][Pt][Cl] [Cisplatin]
ID37 (HeLa): 0.29 ± 0.04 µM | ID37 (HeLa-S1a): 0.62 ± 0.08 µM | ID37 (JAM): 0.83 ± 0.3 µM | ID37 (CI-80-13S): 4.17 ± 0.5 µM | IC50 (41M [11]): 0.26 ± 0.1 µM | IC50 (41M-cisR [12]): 1.2 ± 0.4 µM | IC50 (SKOV-3 [13]): 2.1 µM | IC50 (CH1 [14]): 0.11 ± 0.01 µM | IC50 (CH1-cisR [15]): 0.71 ± 0.2 µM | Rhodamine 123 uptake (Rhodamine 123 uptake): Rhodamine 123 uptake increases
